Measured values from patent US9693556B2, “Herbicidal pyridazinone derivatives” (SYNGENTA LIMITED, priority 2011, dated 2017).

Tests used:
Type in all cases: in vivo
[1] = test system: Alopecurus myosuroides (ALOMY); test: Pre-emergence herbicidal glasshouse test on Alopecurus myosuroides; settings: pre-emergence; 1000 g/h; evaluated after 13 days
Procedure, shortened: (§1)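 Read-out: percentage herbicidal damage 13 days after spraying, given on a five-point scale (5=80-100%, 4=60-79%, 3=40-59%, 2=20-39%, 1=0-19%). Pots of standard soil; application at 1000 g/h, one day post-sowing for pre-emergence, eight days for post-emergence.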

Setaria faberi (SETFA) [2] = test: Pre-emergence herbicidal glasshouse test on Setaria faberi; settings: pre-emergence; 1000 g/h; evaluated after 13 days
Procedure, shortened: as §1

[3] = test system: Echinochloa crus-galli (ECHCG); test: Pre-emergence herbicidal glasshouse test on Echinochloa crus-galli; settings: pre-emergence; 1000 g/h; evaluated after 13 days
Procedure, shortened: as §1

Solanum nigrum (SOLNI) [4] = test: Pre-emergence herbicidal glasshouse test on Solanum nigrum; settings: pre-emergence; 1000 g/h; evaluated after 13 days
Procedure, shortened: as §1

[5] = test system: Amaranthus retoflexus (AMARE); test: Pre-emergence herbicidal glasshouse test on Amaranthus retoflexus; settings: pre-emergence; 1000 g/h; evaluated after 13 days
Procedure, shortened: as §1

[6] = test system: Ipomoea hederacea (IPOHE); test: Pre-emergence herbicidal glasshouse test on Ipomoea hederacea; settings: pre-emergence; 1000 g/h; evaluated after 13 days
Procedure, shortened: as §1

[7] = test system: Alopecurus myosuroides (ALOMY); test: Post-emergence herbicidal glasshouse test on Alopecurus myosuroides; settings: post-emergence; 1000 g/h; evaluated after 13 days
Procedure, shortened: as §1

Setaria faberi (SETFA) [8] = test: Post-emergence herbicidal glasshouse test on Setaria faberi; settings: post-emergence; 1000 g/h; evaluated after 13 days
Procedure, shortened: as §1

[9] = test system: Echinochloa crus-galli (ECHCG); test: Post-emergence herbicidal glasshouse test on Echinochloa crus-galli; settings: post-emergence; 1000 g/h; evaluated after 13 days
Procedure, shortened: as §1

Solanum nigrum (SOLNI) [10] = test: Post-emergence herbicidal glasshouse test on Solanum nigrum; settings: post-emergence; 1000 g/h; evaluated after 13 days
Procedure, shortened: as §1

[11] = test system: Amaranthus retoflexus (AMARE); test: Post-emergence herbicidal glasshouse test on Amaranthus retoflexus; settings: post-emergence; 1000 g/h; evaluated after 13 days
Procedure, shortened: as §1

[12] = test system: Ipomoea hederacea (IPOHE); test: Post-emergence herbicidal glasshouse test on Ipomoea hederacea; settings: post-emergence; 1000 g/h; evaluated after 13 days
Procedure, shortened: as §1

Row | Compound | PRE Application ALOMY herbicidal damage (five point scale) [1] | PRE Application SETFA herbicidal damage (five point scale) (Setaria faberi (SETFA) [2]) | PRE Application ECHCG herbicidal damage (five point scale) [3] | PRE Application SOLNI herbicidal damage (five point scale) (Solanum nigrum (SOLNI) [4]) | PRE Application AMARE herbicidal damage (five point scale) [5] | PRE Application IPOHE herbicidal damage (five point scale) [6] | POST Application ALOMY herbicidal damage (five point scale) [7] | POST Application SETFA herbicidal damage (five point scale) (Setaria faberi (SETFA) [8]) | POST Application ECHCG herbicidal damage (five point scale) [9] | POST Application SOLNI herbicidal damage (five point scale) (Solanum nigrum (SOLNI) [10]) | POST Application AMARE herbicidal damage (five point scale) [11] | POST Application IPOHE herbicidal damage (five point scale) [12]
1 | Cn1ncc(-c2ccccc2Cl)c(O)c1=O [Compound 1.114] | 1 (1=0-19% damage) | 1 (1=0-19% damage) | 1 (1=0-19% damage) | 1 (1=0-19% damage) | 1 (1=0-19% damage) | 1 (1=0-19% damage) | 1 (1=0-19% damage) | 1 (1=0-19% damage) | 1 (1=0-19% damage) | 1 (1=0-19% damage) | 1 (1=0-19% damage) | 1 (1=0-19% damage)
2 | Cn1ncc(-c2ccc(F)cc2C(F)(F)F)c(O)c1=O [Compound 1.112] | 1 (1=0-19% damage) | 1 (1=0-19% damage) | 1 (1=0-19% damage) | 1 (1=0-19% damage) | 1 (1=0-19% damage) | 1 (1=0-19% damage) | 1 (1=0-19% damage) | 1 (1=0-19% damage) | 1 (1=0-19% damage) | 4 (4=60-79% damage) | 5 (5=80-100% damage) | 4 (4=60-79% damage)
3 | Cn1ncc(-n2ccc(C(F)(F)F)c(-c3cccc(OC(F)(F)F)c3)c2=O)c(O)c1=O [Compound 7.005] | 4 (4=60-79% damage) | 4 (4=60-79% damage) | 5 (5=80-100% damage) | 5 (5=80-100% damage) | 5 (5=80-100% damage) | 1 (1=0-19% damage) | 4 (4=60-79% damage) | 4 (4=60-79% damage) | 5 (5=80-100% damage) | 5 (5=80-100% damage) | 5 (5=80-100% damage) | 4 (4=60-79% damage)
4 | C=Cc1ccccc1-c1c(C(F)(F)F)ccn(-c2cnn(C)c(=O)c2O)c1=O [Compound 7.034] | 2 (2=20-39% damage) | 1 (1=0-19% damage) | 1 (1=0-19% damage) | 5 (5=80-100% damage) | 5 (5=80-100% damage) | 1 (1=0-19% damage) | 1 (1=0-19% damage) | 3 (3=40-59% damage) | 3 (3=40-59% damage) | 5 (5=80-100% damage) | 5 (5=80-100% damage) | 2 (2=20-39% damage)
5 | Cc1c(-c2cnn(C(C)C)c(=O)c2O)ccc(S(C)(=O)=O)c1C1=NOCC1 [Compound 1.012] | 4 (4=60-79% damage) | 4 (4=60-79% damage) | 5 (5=80-100% damage) | 5 (5=80-100% damage) | 5 (5=80-100% damage) | 4 (4=60-79% damage) | 5 (5=80-100% damage) | 5 (5=80-100% damage) | 5 (5=80-100% damage) | 5 (5=80-100% damage) | 5 (5=80-100% damage) | 5 (5=80-100% damage)
6 | Cn1ncc(-n2cccc(-c3ccc(C(F)(F)F)cc3)c2=O)c(O)c1=O [Compound 7.001] | 1 (1=0-19% damage) | 1 (1=0-19% damage) | 1 (1=0-19% damage) | 1 (1=0-19% damage) | 1 (1=0-19% damage) | 1 (1=0-19% damage) | 2 (2=20-39% damage) | 3 (3=40-59% damage) | 4 (4=60-79% damage) | 4 (4=60-79% damage) | 3 (3=40-59% damage) | 2 (2=20-39% damage)
7 | CCn1ncc(-c2ccc(C(F)(F)F)nc2S(C)(=O)=O)c(O)c1=O [Compound 4.001] | 5 (5=80-100% damage) | 5 (5=80-100% damage) | 5 (5=80-100% damage) | 5 (5=80-100% damage) | 5 (5=80-100% damage) | 5 (5=80-100% damage) | 5 (5=80-100% damage) | 5 (5=80-100% damage) | 5 (5=80-100% damage) | 5 (5=80-100% damage) | 5 (5=80-100% damage) | 5 (5=80-100% damage)
8 | Cn1ncc(-c2ccc(OCC(F)(F)F)cc2S(C)(=O)=O)c(O)c1=O [Compound 2.030] | 5 (5=80-100% damage) | 5 (5=80-100% damage) | 5 (5=80-100% damage) | 5 (5=80-100% damage) | 5 (5=80-100% damage) | 4 (4=60-79% damage) | 5 (5=80-100% damage) | 5 (5=80-100% damage) | 5 (5=80-100% damage) | 5 (5=80-100% damage) | 5 (5=80-100% damage) | 5 (5=80-100% damage)
